{"source": "ChEMBL document CHEMBL1201862", "about": "“PubChem BioAssay data set” (2004)", "experiment_in_all_cases": "inhibition of tumour cell growth, NCI panel, 48 h", "key": {"COLO 205": {"tested_on": "COLO 205"}, "HCT-116": {"tested_on": "HCT-116"}, "NCI-H522": {"tested_on": "NCI-H522"}, "OVCAR-5": {"tested_on": "OVCAR-5"}, "UO-31": {"tested_on": "UO-31"}, "T47D": {"tested_on": "T47D"}, "NCI/ADR-RES": {"tested_on": "NCI/ADR-RES"}, "SN12C": {"tested_on": "SN12C"}, "SF-268": {"tested_on": "SF-268"}, "A549": {"tested_on": "A549"}, "HOP-62": {"tested_on": "HOP-62"}, "HOP-92": {"tested_on": "HOP-92"}, "EKVX": {"tested_on": "EKVX"}, "MOLT-4": {"tested_on": "MOLT-4"}, "BT-549": {"tested_on": "BT-549"}, "UACC-62": {"tested_on": "UACC-62"}, "CCRF-CEM": {"tested_on": "CCRF-CEM"}}, "note": "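Growth conditions: 96-well plates. Treatment: test compound, 48 hours, 5 concentrations. Analysis: linear interpolation between bracketing concentrations; unreached endpoints set to highest concentration. Here, GI50 denotes the concentration required for 50% inhibition of growth.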 The source made the active and inactive calls. Rule as the data show it: active = GI50 up to about 1.1 µM and inactive = higher.", "data": [{"smiles": "c1cc2c(c(-c3c4ccccc4nc4ccccc34)c1)CC1(CC2)OCCO1", "values": [{"measurement": "GI50", "setting": "COLO 205", "result": "> 100 µM (inactive)"}, {"measurement": "GI50", "setting": "HCT-116", "result": "> 100 µM (inactive)"}, {"measurement": "GI50", "setting": "NCI-H522", "result": "> 100 µM (inactive)"}, {"measurement": "GI50", "setting": "OVCAR-5", "result": "> 100 µM (inactive)"}, {"measurement": "GI50", "setting": "UO-31", "result": "> 100 µM (inactive)"}, {"measurement": "GI50", "setting": "T47D", "result": "> 100 µM (inactive)"}, {"measurement": "GI50", "setting": "NCI/ADR-RES", "result": "> 100 µM (inactive)"}, {"measurement": "GI50", "setting": "SN12C", "result": "> 100 µM (inactive)"}, {"measurement": "GI50", "setting": "SF-268", "result": "> 100 µM (inactive)"}, {"measurement": "GI50", "setting": "A549", "result": "> 100 µM (inactive)"}, {"measurement": "GI50", "setting": "HOP-62", "result": "> 100 µM (inactive)"}, {"measurement": "GI50", "setting": "HOP-92", "result": "> 100 µM (inactive)"}, {"measurement": "GI50", "setting": "EKVX", "result": "> 100 µM (inactive)"}, {"measurement": "GI50", "setting": "MOLT-4", "result": "> 100 µM (inactive)"}, {"measurement": "GI50", "setting": "BT-549", "result": "> 100 µM (inactive)"}]}, {"smiles": "Cc1ccc(-c2cn3c(nc4ccccc43)c(/C=C/c3ccco3)n2)cc1", "values": [{"measurement": "GI50", "setting": "COLO 205", "result": "61.7 µM (inactive)"}, {"measurement": "GI50", "setting": "HCT-116", "result": "> 100 µM (inactive)"}, {"measurement": "GI50", "setting": "OVCAR-5", "result": "> 100 µM (inactive)"}, {"measurement": "GI50", "setting": "UO-31", "result": "> 100 µM (inactive)"}, {"measurement": "GI50", "setting": "T47D", "result": "71.4 µM (inactive)"}, {"measurement": "GI50", "setting": "NCI/ADR-RES", "result": "> 100 µM (inactive)"}, {"measurement": "GI50", "setting": "UACC-62", "result": "> 100 µM (inactive)"}, {"measurement": "GI50", "setting": "SN12C", "result": "86.9 µM (inactive)"}, {"measurement": "GI50", "setting": "SF-268", "result": "59.7 µM (inactive)"}, {"measurement": "GI50", "setting": "A549", "result": "> 100 µM (inactive)"}, {"measurement": "GI50", "setting": "HOP-62", "result": "> 100 µM (inactive)"}, {"measurement": "GI50", "setting": "HOP-92", "result": "> 100 µM (inactive)"}, {"measurement": "GI50", "setting": "BT-549", "result": "> 100 µM (inactive)"}]}, {"smiles": "CN(C)C1(N(C)C)Oc2c(c(=O)n(C)c(=O)n2C)C(c2ccc(Br)cc2)C1(F)F", "note": "(stereo not given)", "values": [{"measurement": "GI50", "setting": "COLO 205", "result": "> 100 µM (inactive)"}, {"measurement": "GI50", "setting": "HCT-116", "result": "> 100 µM (inactive)"}, {"measurement": "GI50", "setting": "OVCAR-5", "result": "> 100 µM (inactive)"}, {"measurement": "GI50", "setting": "UO-31", "result": "> 100 µM (inactive)"}, {"measurement": "GI50", "setting": "T47D", "result": "> 100 µM (inactive)"}, {"measurement": "GI50", "setting": "NCI/ADR-RES", "result": "> 100 µM (inactive)"}, {"measurement": "GI50", "setting": "CCRF-CEM", "result": "> 100 µM (inactive)"}, {"measurement": "GI50", "setting": "UACC-62", "result": "> 100 µM (inactive)"}, {"measurement": "GI50", "setting": "SF-268", "result": "> 100 µM (inactive)"}, {"measurement": "GI50", "setting": "A549", "result": "> 100 µM (inactive)"}, {"measurement": "GI50", "setting": "HOP-62", "result": "> 100 µM (inactive)"}, {"measurement": "GI50", "setting": "HOP-92", "result": "82.4 µM (inactive)"}, {"measurement": "GI50", "setting": "EKVX", "result": "> 100 µM (inactive)"}, {"measurement": "GI50", "setting": "MOLT-4", "result": "> 100 µM (inactive)"}, {"measurement": "GI50", "setting": "BT-549", "result": "> 100 µM (inactive)"}]}, {"smiles": "CCCCNS(=O)(=O)c1n[nH]c(=O)[nH]c1=O", "values": [{"measurement": "GI50", "setting": "COLO 205", "result": "> 100 µM (inactive)"}, {"measurement": "GI50", "setting": "HCT-116", "result": "> 100 µM (inactive)"}, {"measurement": "GI50", "setting": "NCI-H522", "result": "> 100 µM (inactive)"}, {"measurement": "GI50", "setting": "OVCAR-5", "result": "> 100 µM (inactive)"}, {"measurement": "GI50", "setting": "UO-31", "result": "> 100 µM (inactive)"}, {"measurement": "GI50", "setting": "T47D", "result": "> 100 µM (inactive)"}, {"measurement": "GI50", "setting": "NCI/ADR-RES", "result": "> 100 µM (inactive)"}, {"measurement": "GI50", "setting": "CCRF-CEM", "result": "14.1 µM (inactive)"}, {"measurement": "GI50", "setting": "UACC-62", "result": "> 100 µM (inactive)"}, {"measurement": "GI50", "setting": "SN12C", "result": "> 100 µM (inactive)"}, {"measurement": "GI50", "setting": "SF-268", "result": "> 100 µM (inactive)"}, {"measurement": "GI50", "setting": "A549", "result": "> 100 µM (inactive)"}, {"measurement": "GI50", "setting": "HOP-62", "result": "23.5 µM (inactive)"}, {"measurement": "GI50", "setting": "EKVX", "result": "> 100 µM (inactive)"}, {"measurement": "GI50", "setting": "MOLT-4", "result": "> 100 µM (inactive)"}, {"measurement": "GI50", "setting": "BT-549", "result": "> 100 µM (inactive)"}]}, {"smiles": "CC1OC(n2cc(F)c(=O)[nH]c2=O)C(O[Si](C)(C)C(C)(C)C)C1O[Si](C)(C)C(C)(C)C", "note": "(stereo not given)", "values": [{"measurement": "GI50", "setting": "COLO 205", "result": "14.4 µM (inactive)"}, {"measurement": "GI50", "setting": "HCT-116", "result": "13.9 µM (inactive)"}, {"measurement": "GI50", "setting": "NCI-H522", "result": "4.34 µM (inactive)"}, {"measurement": "GI50", "setting": "OVCAR-5", "result": "15.2 µM (inactive)"}, {"measurement": "GI50", "setting": "UO-31", "result": "12.8 µM (inactive)"}, {"measurement": "GI50", "setting": "T47D", "result": "10.2 µM (inactive)"}, {"measurement": "GI50", "setting": "NCI/ADR-RES", "result": "12.7 µM (inactive)"}, {"measurement": "GI50", "setting": "CCRF-CEM", "result": "16.6 µM (inactive)"}, {"measurement": "GI50", "setting": "UACC-62", "result": "14.8 µM (inactive)"}, {"measurement": "GI50", "setting": "SN12C", "result": "12.4 µM (inactive)"}, {"measurement": "GI50", "setting": "SF-268", "result": "12 µM (inactive)"}, {"measurement": "GI50", "setting": "A549", "result": "15.8 µM (inactive)"}, {"measurement": "GI50", "setting": "HOP-62", "result": "21.5 µM (inactive)"}, {"measurement": "GI50", "setting": "EKVX", "result": "16.9 µM (inactive)"}, {"measurement": "GI50", "setting": "MOLT-4", "result": "13.2 µM (inactive)"}, {"measurement": "GI50", "setting": "BT-549", "result": "13.4 µM (inactive)"}]}, {"smiles": "COc1cccc(/N=N/C(=N\\NC(=O)c2ccc(C)cc2)c2ccc(N(CCC#N)CCC#N)cc2C)c1", "values": [{"measurement": "GI50", "setting": "COLO 205", "result": "> 100 µM (inactive)"}, {"measurement": "GI50", "setting": "HCT-116", "result": "68.1 µM (inactive)"}, {"measurement": "GI50", "setting": "OVCAR-5", "result": "> 100 µM (inactive)"}, {"measurement": "GI50", "setting": "UO-31", "result": "59.8 µM (inactive)"}, {"measurement": "GI50", "setting": "T47D", "result": "41.1 µM (inactive)"}, {"measurement": "GI50", "setting": "NCI/ADR-RES", "result": "> 100 µM (inactive)"}, {"measurement": "GI50", "setting": "SN12C", "result": "> 100 µM (inactive)"}, {"measurement": "GI50", "setting": "SF-268", "result": "> 100 µM (inactive)"}, {"measurement": "GI50", "setting": "A549", "result": "> 100 µM (inactive)"}, {"measurement": "GI50", "setting": "HOP-62", "result": "72.8 µM (inactive)"}, {"measurement": "GI50", "setting": "HOP-92", "result": "> 100 µM (inactive)"}, {"measurement": "GI50", "setting": "EKVX", "result": "66.5 µM (inactive)"}, {"measurement": "GI50", "setting": "MOLT-4", "result": "> 100 µM (inactive)"}, {"measurement": "GI50", "setting": "BT-549", "result": "71 µM (inactive)"}]}, {"smiles": "C=C1CC(C)(c2cccc(Nc3nc4ccccc4c4occc34)c2)OC1=O", "note": "(stereo not given)", "values": [{"measurement": "GI50", "setting": "COLO 205", "result": "4.38 µM (inactive)"}, {"measurement": "GI50", "setting": "HCT-116", "result": "1.67 µM (inactive)"}, {"measurement": "GI50", "setting": "OVCAR-5", "result": "14.3 µM (inactive)"}, {"measurement": "GI50", "setting": "UO-31", "result": "1.89 µM (inactive)"}, {"measurement": "GI50", "setting": "T47D", "result": "3.1 µM (inactive)"}, {"measurement": "GI50", "setting": "NCI/ADR-RES", "result": "8 µM (inactive)"}, {"measurement": "GI50", "setting": "CCRF-CEM", "result": "2.07 µM (inactive)"}, {"measurement": "GI50", "setting": "UACC-62", "result": "0.65 µM (active)"}, {"measurement": "GI50", "setting": "SN12C", "result": "2.83 µM (inactive)"}, {"measurement": "GI50", "setting": "SF-268", "result": "10.5 µM (inactive)"}, {"measurement": "GI50", "setting": "A549", "result": "3.92 µM (inactive)"}, {"measurement": "GI50", "setting": "HOP-62", "result": "12.2 µM (inactive)"}, {"measurement": "GI50", "setting": "HOP-92", "result": "1.44 µM (inactive)"}, {"measurement": "GI50", "setting": "EKVX", "result": "14.7 µM (inactive)"}, {"measurement": "GI50", "setting": "MOLT-4", "result": "10.6 µM (inactive)"}, {"measurement": "GI50", "setting": "BT-549", "result": "4.85 µM (inactive)"}]}]}
